# Laboratory results as given in patent US11304966B2, “Composition comprising HMOs for preventing or reducing nociception” (Glycom A/S, priority 2017, dated 2022).
# pEC50: −log10 of the molar value.
# Molecular target: T1, GPR35 receptor (Homo sapiens, UniProt Q9HC97)
# T1 construct: expressed in transfected cells
# Test: PathHunter β-Arrestin assay, activation of GPR35 expressed in cultured cells
# Type: cell-based
# Details: for activation of GPR35: up to 10 mM; for pEC50: highest concentration tested 10 mM, duplicate
# Description: Six human milk oligosaccharides (LNnT, LNT, 2′-FL, DFL, 6′-SL and 3′-SL) are screened for their ability to activate the GPR35 receptor in the PathHunter β-Arresin assay. This assay monitors the activation of GPR35 expressed in cultured cells, using Enzyme Fragment Complementation with β-galactosidase (β-Gal) as the functional reporter. […] EA is fused to β-Arrestin and PK is fused to GPR35. When the GPR35 is activated and β-Arrestin is recruited to the receptor, PK and EA complementation occurs, restoring β-Gal activity, which is measured using chemiluminescent Detection Reagents.
# The GPR35 cell line is expanded from frozen stocks and cultured according to standard procedures. Cells are seeded in a total volume of 20 μl into white walled, 384-well microplates and incubated at 37° C. for the appropriate time prior to testing. All testing is done in duplicate. The HMO samples are held in the form of concentrated stocks in Phosphate Buffered saline (PBS). A 5× dilution compound working intermediate is prepared in PBS. Five μl of the sample is added to the cells and incubated at room temperature for 3 to 5 hours. The assay signal is generated through a single addition of 12.5 μl (50 v/v %) of PathHunter Detection reagent cocktail, followed by one-hour incubation at room temperature. Microplates are read following signal generation with a PerkinElmer Envision™ instrument for chemiluminescent signal detection. Zaprinast (which is known to be an activator of GPR35) is used as positive control. Dose-response is generated by iterative 3× dilutions of the highest concentration tested (10 mM).
# T1 sequence (Q9HC97 whole entry): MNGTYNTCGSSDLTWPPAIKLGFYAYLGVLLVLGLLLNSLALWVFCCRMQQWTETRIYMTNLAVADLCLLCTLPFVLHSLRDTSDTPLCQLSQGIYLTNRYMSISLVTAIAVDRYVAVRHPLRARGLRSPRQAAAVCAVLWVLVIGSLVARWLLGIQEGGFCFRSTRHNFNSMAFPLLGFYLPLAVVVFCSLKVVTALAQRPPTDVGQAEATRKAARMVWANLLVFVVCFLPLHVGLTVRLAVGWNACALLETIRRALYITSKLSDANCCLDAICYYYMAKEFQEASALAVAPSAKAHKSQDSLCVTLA
# T1 sequence (P32121 whole entry partner): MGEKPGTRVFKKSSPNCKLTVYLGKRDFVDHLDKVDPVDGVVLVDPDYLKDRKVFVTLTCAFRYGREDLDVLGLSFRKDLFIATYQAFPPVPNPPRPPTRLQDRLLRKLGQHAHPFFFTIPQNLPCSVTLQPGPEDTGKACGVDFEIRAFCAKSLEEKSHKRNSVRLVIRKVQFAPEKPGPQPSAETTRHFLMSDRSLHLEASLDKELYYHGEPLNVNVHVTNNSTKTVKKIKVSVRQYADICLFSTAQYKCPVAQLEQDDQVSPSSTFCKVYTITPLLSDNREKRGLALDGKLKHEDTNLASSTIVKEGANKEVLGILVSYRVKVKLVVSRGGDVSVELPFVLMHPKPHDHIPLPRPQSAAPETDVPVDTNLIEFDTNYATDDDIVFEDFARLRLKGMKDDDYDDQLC
activation of GPR35,pEC50,SMILES
No activation,,"CC(=O)N[C@H]1[C@H](O[C@H]2[C@@H](O)[C@@H](CO)O[C@@H](O[C@H]3[C@H](O)[C@@H](O)C(O)O[C@@H]3CO)[C@@H]2O)O[C@H](CO)[C@@H](O[C@@H]2O[C@H](CO)[C@H](O)[C@H](O)[C@H]2O)[C@@H]1O (mixture of isomers) [LNnT, lacto-N-neotetraose]"
No activation,,"CC(=O)N[C@H]1[C@H]([C@H](O)[C@H](O)CO)O[C@@](O[C@H]2[C@@H](O)[C@@H](CO)O[C@@H](O[C@H]3[C@H](O)[C@@H](O)C(O)O[C@@H]3CO)[C@@H]2O)(C(=O)O)C[C@@H]1O (some centres unmarked) [3′-SL, 3′-sialyllactose]"
,2.19,"CC(=O)N[C@H]1[C@H]([C@H](O)[C@H](O)CO)O[C@@](OC[C@H]2O[C@@H](O[C@H]3[C@H](O)[C@@H](O)[C@H](O)O[C@@H]3CO)[C@H](O)[C@@H](O)[C@H]2O)(C(=O)O)C[C@@H]1O [6′-SL, 6′-sialyllactose]"
No activation,,"C[C@@H]1O[C@@H](O[C@H]2[C@H](O[C@H]3[C@H](O[C@@H]4O[C@@H](C)[C@@H](O)[C@@H](O)[C@@H]4O)[C@@H](O)C(O)O[C@@H]3CO)O[C@H](CO)[C@H](O)[C@@H]2O)[C@@H](O)[C@H](O)[C@@H]1O (some centres unmarked) [DFL, difucosyllactose]"
,2.35,"CC(=O)N[C@H]1[C@H](O[C@H]2[C@@H](O)[C@@H](CO)O[C@@H](O[C@H]3[C@H](O)[C@@H](O)C(O)O[C@@H]3CO)[C@@H]2O)O[C@H](CO)[C@@H](O)[C@@H]1O[C@@H]1O[C@H](CO)[C@H](O)[C@H](O)[C@H]1O (some centres unmarked) [LNT, lacto-N-tetraose]"
